From patent US20260166115A1, “POLYUNSATURATED FATTY ACID-BOUND ALPHA FETOPROTEIN PROMOTES IMMUNE SUPPRESSION BY ALTERING HUMAN DENDRITIC CELL METABOLISM” (The Regents of the University of California, priority 2022, published 2026)

Assays:
Assay type in all cases: cell-based, human
[1] = system: iDCs; test: Fatty acid screen: fatty acids titrated onto iDCs without OVA, nAFP or tAFP; details: for lactate production: relative to control cells, 16:0 at 5-20 μM in b86
Description: We developed an in vitro assay to screen specific FAs that are necessary for tAFP-mediated suppression of DC formation (FIG. 6A). Many of the FAs screened have known roles in promoting (Weatherill, A. R. et al. Saturated and Polyunsaturated Fatty Acids Reciprocally Modulate Dendritic Cell Functions Mediated through TLR4. J Immunol. 174, 5390-5397 (2005); Lancaster, G. I. et al. Evidence that TLR4 Is Not a Receptor for Saturated Fatty Acids but Mediates Lipid-Induced Inflammation by Reprogramming Macrophage Metabolism. Cell Metab. 27, 1096-1110.e5 (2018)) or limiting DC differentiation (Zeyda, M. et al. Polyunsaturated Fatty Acids Block Dendritic Cell Activation and Function Independently of NF-κB Activation. J Biol. Chem. 280, 14293-14301 (2005)). Therefore, to determine their necessity for tAFP-mediated DC suppression, we titrated several FAs unique to tAFP (20:3 N6, 20:5, and 22:5 N3), and other PUFAs to determine the concentration they lost their inherent ability to suppress DC differentiation in the absence of OVA, nAFP, or tAFP (FIG. 6A). […] All three PUFAs at high concentrations inhibited CD206 expression on DCs (Zeyda. M. et al. Polyunsaturated Fatty Acids Block Dendritic Cell Activation and Function Independently of NF-κB Activation. J Biol. Chem. 280, 14293-14301 (2005)), at levels equivalent to or greater than tAFP treatment.
Fatty acids were resuspended in ethanol and stored at −20° C. at 100 uM. […] Both the native preparations and HMM fractions contained similar amounts of protein (˜0.5 mg/mL), whereas protein was undetectable ([…]) in the low molar mass (LMM) fraction. […] Fats (+/−HMM) were added to pre-warmed media and incubated for 1 hour, mixing at 37° C. before adding to cells (Alsabeeh, N., Chausse, B., Kakimoto, P. A., Kowaltowski, A. J. & Shirihai, O. Cell Culture Models of Fatty Acid Overload: Problems and Solutions. Biochim. Biophys. Acta 1863, 143-151 (2018)). Fats were combined with HMM at a 3:1 molar ratio, as previously described (Alsabeeh, N., Chausse, B., Kakimoto, P. A., Kowaltowski, A. J. & Shirihai. O. Cell Culture Models of Fatty Acid Overload: Problems and Solutions. Biochim. Biophys. Acta 1863, 143-151 (2018)).

[2] = system: iDCs and mDCs; test: Fatty acid screen: fatty acids added back to HMM OVA, nAFP or tAFP; details: for CD206 expression at the iDC stage / inhibition of CD206 expression, mDC: FA combined with tAFP; for CD206 expression compared to controls: FA+HMM tAFP
Method: Fatty acids were resuspended in ethanol and stored at −20° C. at 100 uM.

[3] = system: monocyte-derived dendritic cells (DCs); test: Glucose and lactate measurements in DC cultures; details: DC
Description: (§1) DCs were differentiated in vitro similarly as previously described (Pardee, A. D., Shi, J. & Butterfield, L. H. Tumor-Derived α-Fetoprotein Impairs the Differentiation and T Cell Stimulatory Activity of Human Dendritic Cells. J Immunol. 193, 5723-5732 (2014)). In brief, cryopreserved PBMC were thawed and CD14*monocytes were magnetically labeled using CD14 MicroBeads (Miltenyi, Cat #130-050-201) and isolated by LS columns (Miltenyi, Cat #130-042-401) per the manufacturer instructions. Viable eluted cells were enumerated using trypan blue on a Nexcelom Cellometer Spectrum. To generate iDCs, monocytes were stimulated for 5 days in the presence of 800 IU/mL of rGM-CSF (Miltenyi, Cat #130-093-862) and 500 IU/mL of rIL-4 (Miltenyi, Cat #130-095-373) as well as OVA, nAFP, or tAFP in CellGenix® GMP DC media (Cat #20801-0500) 37° C. at 5% CO2. Lastly, we performed an additional 24-hour stimulation with 1000 IU/mL of rIFN-γ (Peprotech, Cat #300-02) and 250 ng/mL of LPS (Sigma Aldrich, Cat #L2630-10MG) to produce mDCs. To harvest cells, DC were detached using TrypLE™ Select (Gibco, Cat #12563011) for 15 minutes at 37° C. and then washed several times with cold PBS.
Glucose and lactate were measured by applying approximately 5 μL of supernatant to Clarity BG1000 Blood Glucose strips (Cat #75840-798) and meter (Cat #75840-800) system or the Lactate Plus strips (Nova Biomedical©, Cat #40813) and meter version 2 (Nova Biomedical©, Cat #62624) system. Each meter was quality checked with control glucose and lactate solutions and CellGenix™ media before each experiment.

[4] = system: monocyte-derived dendritic cells (DCs); test: SCENITH single-cell energetic metabolism profiling of treated DCs; details: DC
Description: as §1
SCENITH was performed as described in (Arguello et al., 2020). SCENITH™ reagents kit (inhibitors, puromycin and antibodies) were obtained from www.scenith.com/try-it and used according to the provided protocol for in-vitro derived myeloid cells. Briefly, control and tol-moDC cultures at desired timepoints, were treated for 18 minutes with Control (DMSO), 2-Deoxy-Glucose (2-DG; 100 mM), Oligomycin (0; 1 μM), a combination of 2DG and Oligomycin (DGO) or Harringtonine (H; 2 μg/mL). Following metabolic inhibitors, Puromycin (final concentration 10 μg/mL) was added to cultures for 17 min. After puromycin treatment, cells were detached from wells using TypLE Select (Fisher Scientific, 505914419), washed in cold PBS and stained with a combination of Human TureStain FcX (Biolegend, 422301) and fluorescent cell viability dye (Biolegend, 423105) for 10 min 4° C. in PBS. Following PBS wash step, primary antibodies against surface markers were incubated for 25 min at 4° C. in Brilliant Stain Buffer (BD Biosciences, 563794). Next cells were fixed and permeabilized using True-Nuclear Transcription Factor Buffer Set (Biolegend, 424401) as per manufacturer instructions. Intracellular staining of puromycin and protein targets was performed for 1 h in diluted (10×) permeabilization buffer at 4° C. Finally, data acquisition was performed using the Cytek Aurora flow cytometer. Primary conjugated antibody information used in SCENITH panel is listed in supplementary table 1. All antibodies were titrated to reduce spillover and increase resolution using single stained moDC (generated as described above) samples. Unstained cell controls used for autofluorescence extraction were generated for each time point, culture conditions (control, vitd3-tol-moDC and dexa-vitd3-tol-moDC) and metabolic inhibitor treatments (C, 2DG, O, DGO). Samples were unmixed using reference controls generated in combination with stained Ultracomp beads (Fisher Scientific, 01-2222-41) and stained cells using the SpectroFlo Software v2.2.0.1. The unmixed FCS files were used for data processing and analysis using FlowJo (BD, version 10.7.1). Manually gated CD14-HLA-DR*CD86+ cells were used for downstream analysis. gMFI expression values were imported into R environment for correlation and heatmap analysis using the below described R packages.

[5] = system: mDCs generated in vitro; test: scMEP single-cell metabolic regulome profiling by CyTOF
Method: scMEP analysis was performed as recently described (Hartmann et al., 2021). In short, antibodies targeting metabolic features were conjugated in-house using an optimized conjugation protocol (Hartmann et al., 2019) and validated on multiple sample types. Cells were prepared for scMEP analysis by incubation with small molecules to be able to assess biosynthesis rates of DNA, RNA and protein, cisplatin-based live/dead staining, PFA-based cell fixation and cryopreservation (dx.doi.org/10.17504/protocols.io.bkwkkxcw). Next, cells were stained with metabolic antibodies in a procedure that includes surface staining for 30 min at RT, PFA-fixation for 10 min at RT, MeOH-based permeabilization for 10 min on ice, intracellular staining for 1 h at RT and DNA intercalation (dx.doi.org/10.17504/protocols.io.bntnmeme). Finally, cells were acquired on a CyTOF2 mass cytometer (Fluidigm). Protein targets and antibody information used in scMEP are listed in supplementary table 2. Raw mass spectrometry data were pre-processed, de-barcoded and imported into R environment using the flowCore package (version 2.0.1) (Hahne et al., 2009). Values were arcsin h transformed (cofactor 5) and normalized (Hartmann et al., 2021) for downstream analyses based on previously reported workflow (Nowicka et al., 2017).

CCCCCCCCCCCCCCCC(=O)O [16:0, palmitic acid]
ox-phos [1]: can promote
CD206 expression on DCs ([1]; fatty acid alone): increase
DC differentiation ([1]; fatty acid alone): tended to promote
lactate production ([1]; fatty acid alone): tended to decrease
lactate production ([1]; fatty acid alone, listed as palmitic acid): decrease

CCCCC/C=C\C/C=C\C/C=C\CCCCCCC(=O)O [20:3 N6, dihomo-γ-linolenic acid]
CD206 expression at the iDC stage [2]: immunoregulatory activity
inhibition of CD206 expression, mDC [2]: ~-15%
CD206 expression compared to controls [2]: significantly reduced

CCCCC/C=C\C/C=C\C/C=C\C/C=C\CCCC(=O)O [20:4, arachidonic acid]
CD206 expression at the iDC stage [2]: immunoregulatory activity
inhibition of CD206 expression, mDC [2]: ~-15%
CD206 expression compared to controls [2]: significantly reduced

CCCCC/C=C\C/C=C\C/C=C\C/C=C\CCCCCC(=O)O [22:4, adrenic acid]
inhibition of CD206 expression, mDC [2]: ~-15%

B1: palmitic acid-bound AFP: alpha fetoprotein non-covalently bound to palmitic acid (protein, UniProt P02771 19-609, looked up)
Alpha-fetoprotein: RTLHRNEYGIASILDSYQCTAEISLADLATIFFAQFVQEATYKEVSKMVKDALTAIEKPTGDEQSSGCLENQLPAFLEELCHEKEILEKYGHSDCCSQSEEGRHNCFLAHKKPTPASIPLFQVPEPVTSCEAYEEDRETFMNKFIYEIARRHPFLYAPTILLWAARYDKIIPSCCKAENAVECFQTKAATVTKELRESSLLNQHACAVMKNFGTRTFQAITVTKLSQKFTKVNFTEIQKLVLDVAHVHEHCCRGDVLDCLQDGEKIMSYICSQQDTLSNKITECCKLTTLERGQCIIHAENDEKPEGLSPNLNRFLGDRDFNQFSSGEKNIFLASFVHEYSRRHPQLAVSVILRVAKGYQELLEKCFQTENPLECQDKGEEELQKYIQESQALAKRSCGLFQKLGEYYLQNAFLVAYTKKAPQLTSSELMAITRKMAATAATCCQLSEDKLLACGEGAADIIIGHLCIRHEMTPVNPGVGQCCTSSYANRRPCFSSLVVDETYVPPAFSDDKFIFHKDLCQAQGVALQTMKQEFLINLVKQKPQITEEQLEAVIADFSGLLEKCCQGQEQEVCFAEEGQKLISKTRAALGV
modifications: non-covalently bound palmitic acid
CD206 expression in dendritic cells ([2]; fatty acid-bound AFP): increased
lactate secretion in dendritic cells ([2]; fatty acid-bound AFP): decreased

B2: nAFP: cord blood-derived normal alpha fetoprotein; commercially available (Cell Sciences) (protein, UniProt P02771 19-609, looked up)
Alpha-fetoprotein: RTLHRNEYGIASILDSYQCTAEISLADLATIFFAQFVQEATYKEVSKMVKDALTAIEKPTGDEQSSGCLENQLPAFLEELCHEKEILEKYGHSDCCSQSEEGRHNCFLAHKKPTPASIPLFQVPEPVTSCEAYEEDRETFMNKFIYEIARRHPFLYAPTILLWAARYDKIIPSCCKAENAVECFQTKAATVTKELRESSLLNQHACAVMKNFGTRTFQAITVTKLSQKFTKVNFTEIQKLVLDVAHVHEHCCRGDVLDCLQDGEKIMSYICSQQDTLSNKITECCKLTTLERGQCIIHAENDEKPEGLSPNLNRFLGDRDFNQFSSGEKNIFLASFVHEYSRRHPQLAVSVILRVAKGYQELLEKCFQTENPLECQDKGEEELQKYIQESQALAKRSCGLFQKLGEYYLQNAFLVAYTKKAPQLTSSELMAITRKMAATAATCCQLSEDKLLACGEGAADIIIGHLCIRHEMTPVNPGVGQCCTSSYANRRPCFSSLVVDETYVPPAFSDDKFIFHKDLCQAQGVALQTMKQEFLINLVKQKPQITEEQLEAVIADFSGLLEKCCQGQEQEVCFAEEGQKLISKTRAALGV
glucose uptake [3]: modestly increases
FAO [4]: similarly reduces
glucose dependent metabolism [4]: modestly increases
levels of cytochrome C (CytC) [5]: elevated
